From the NIST ThermoML archive (doi:10.1016/j.jct.2012.11.032)

Test: xn = mol fraction of the nth substance listed
Conditions: 101 kPa, Liquid; for speed of sound: Sing-around technique in a fixed-path interferometer; for mass density: Vibrating tube method

CCCCCCCCCCCC[n+]1ccn(C)c1.[Cl-] [1-dodecyl-3-methylimidazolium chloride] + O
Conditions | mass density [kg/m3] | speed of sound [m/s]
298 K, x1 = 2.7e-05 | 997.065 | –
298 K, x1 = 3e-05 | 997.081 | –
298 K, x1 = 4.8e-05 | 997.081 | –
298 K, x1 = 7.4e-05 | 997.07 | –
298 K, x1 = 9.4e-05 | 997.061 | –
298 K, x1 = 0.000109 | 997.064 | –
298 K, x1 = 0.000129 | 997.078 | –
298 K, x1 = 0.000145 | 997.058 | –
298 K, x1 = 0.000163 | 997.076 | –
298 K, x1 = 0.000181 | 997.056 | –
298 K, x1 = 0.000208 | 997.055 | –
298 K, x1 = 0.000234 | 997.049 | –
298 K, x1 = 0.000248 | 997.059 | –
298 K, x1 = 0.000273 | 997.045 | –
298 K, x1 = 0.000286 | 997.042 | –
298 K, x1 = 0.000302 | 997.023 | –
298 K, x1 = 0.000319 | 997.039 | –
298 K, x1 = 0.000341 | 997.023 | –
298 K, x1 = 0.000384 | 997.011 | –
298 K, x1 = 0.000407 | 996.995 | –
298 K, x1 = 0.000428 | 996.98 | –
298 K, x1 = 0.0428 | – | 1500.7
303 K, x1 = 2.7e-05 | 995.678 | –
303 K, x1 = 3e-05 | 995.688 | –
303 K, x1 = 4.8e-05 | 995.688 | –
303 K, x1 = 7.4e-05 | 995.68 | –
303 K, x1 = 9.4e-05 | 995.666 | –
303 K, x1 = 0.000109 | 995.667 | –
303 K, x1 = 0.000129 | 995.679 | –
303 K, x1 = 0.000145 | 995.66 | –
303 K, x1 = 0.000163 | 995.674 | –
303 K, x1 = 0.000181 | 995.656 | –
303 K, x1 = 0.000208 | 995.653 | –
303 K, x1 = 0.000234 | 995.647 | –
303 K, x1 = 0.000248 | 995.65 | –
303 K, x1 = 0.000273 | 995.635 | –
303 K, x1 = 0.000286 | 995.632 | –
303 K, x1 = 0.000302 | 995.606 | –
303 K, x1 = 0.000319 | 995.625 | –
303 K, x1 = 0.000341 | 995.608 | –
303 K, x1 = 0.000384 | 995.594 | –
303 K, x1 = 0.000407 | 995.571 | –
303 K, x1 = 0.000428 | 995.568 | –
303 K, x1 = 0.0027 | – | 1509.5
303 K, x1 = 0.003 | – | 1509.5
303 K, x1 = 0.0048 | – | 1509.8
303 K, x1 = 0.0074 | – | 1510.1
303 K, x1 = 0.0094 | – | 1510.4
303 K, x1 = 0.0109 | – | 1510.6
303 K, x1 = 0.0129 | – | 1510.8
303 K, x1 = 0.0145 | – | 1511
303 K, x1 = 0.0163 | – | 1511.2
303 K, x1 = 0.0181 | – | 1511.4
303 K, x1 = 0.0208 | – | 1511.8
303 K, x1 = 0.0234 | – | 1512
303 K, x1 = 0.0248 | – | 1512.1
303 K, x1 = 0.0273 | – | 1512.3
303 K, x1 = 0.0286 | – | 1512.3
303 K, x1 = 0.0302 | – | 1512.4
303 K, x1 = 0.0319 | – | 1512.5
303 K, x1 = 0.0341 | – | 1512.6
303 K, x1 = 0.0384 | – | 1512.5
303 K, x1 = 0.0407 | – | 1512.7
303 K, x1 = 0.0428 | – | 1512.7
308 K, x1 = 2.7e-05 | 994.072 | –
308 K, x1 = 3e-05 | 994.075 | –
308 K, x1 = 4.8e-05 | 994.073 | –
308 K, x1 = 7.4e-05 | 994.068 | –
308 K, x1 = 9.4e-05 | 994.05 | –
308 K, x1 = 0.000109 | 994.047 | –
308 K, x1 = 0.000129 | 994.059 | –
308 K, x1 = 0.000145 | 994.046 | –
308 K, x1 = 0.000163 | 994.052 | –
308 K, x1 = 0.000181 | 994.039 | –
308 K, x1 = 0.000208 | 994.032 | –
308 K, x1 = 0.000234 | 994.027 | –
308 K, x1 = 0.000248 | 994.022 | –
308 K, x1 = 0.000273 | 994.008 | –
308 K, x1 = 0.000286 | 994.004 | –
308 K, x1 = 0.000302 | 993.979 | –
308 K, x1 = 0.000319 | 993.993 | –
308 K, x1 = 0.000341 | 993.986 | –
308 K, x1 = 0.000384 | 993.958 | –
308 K, x1 = 0.000407 | 993.935 | –
308 K, x1 = 0.000428 | 993.939 | –
308 K, x1 = 0.0027 | – | 1520.1
308 K, x1 = 0.003 | – | 1520.2
308 K, x1 = 0.0048 | – | 1520.4
308 K, x1 = 0.0074 | – | 1520.7
308 K, x1 = 0.0094 | – | 1521
308 K, x1 = 0.0109 | – | 1521.1
308 K, x1 = 0.0129 | – | 1521.3
308 K, x1 = 0.0145 | – | 1521.5
308 K, x1 = 0.0163 | – | 1521.7
308 K, x1 = 0.0181 | – | 1521.9
308 K, x1 = 0.0208 | – | 1522.2
308 K, x1 = 0.0234 | – | 1522.4
308 K, x1 = 0.0248 | – | 1522.5
308 K, x1 = 0.0273 | – | 1522.7
308 K, x1 = 0.0286 | – | 1522.8
308 K, x1 = 0.0302 | – | 1522.8
308 K, x1 = 0.0319 | – | 1522.9
308 K, x1 = 0.0341 | – | 1523
308 K, x1 = 0.0384 | – | 1522.8
308 K, x1 = 0.0407 | – | 1523
308 K, x1 = 0.0428 | – | 1523
313 K, x1 = 2.7e-05 | 992.261 | –
313 K, x1 = 3e-05 | 992.046 | –
313 K, x1 = 7.4e-05 | 992.253 | –
313 K, x1 = 9.4e-05 | 992.137 | –
313 K, x1 = 0.000109 | 992.207 | –
313 K, x1 = 0.000129 | 992.221 | –
313 K, x1 = 0.000145 | 992.226 | –
313 K, x1 = 0.000163 | 992.224 | –
313 K, x1 = 0.000181 | 992.217 | –
313 K, x1 = 0.000208 | 992.206 | –
313 K, x1 = 0.000234 | 992.203 | –
313 K, x1 = 0.000248 | 992.194 | –
313 K, x1 = 0.000273 | 992.178 | –
313 K, x1 = 0.000286 | 992.177 | –
313 K, x1 = 0.000302 | 992.159 | –
313 K, x1 = 0.000319 | 992.158 | –
313 K, x1 = 0.000341 | 992.147 | –
313 K, x1 = 0.000384 | 992.121 | –
313 K, x1 = 0.000407 | 992.068 | –
313 K, x1 = 0.000428 | 992.103 | –
313 K, x1 = 0.0027 | – | 1529.2
313 K, x1 = 0.003 | – | 1529.2
313 K, x1 = 0.0074 | – | 1529.7
313 K, x1 = 0.0094 | – | 1530
313 K, x1 = 0.0109 | – | 1530.1
313 K, x1 = 0.0129 | – | 1530.3
313 K, x1 = 0.0145 | – | 1530.4
313 K, x1 = 0.0163 | – | 1530.6
313 K, x1 = 0.0181 | – | 1530.8
313 K, x1 = 0.0208 | – | 1531.1
313 K, x1 = 0.0234 | – | 1531.3
313 K, x1 = 0.0248 | – | 1531.4
313 K, x1 = 0.0273 | – | 1531.5
313 K, x1 = 0.0286 | – | 1531.6
313 K, x1 = 0.0302 | – | 1531.6
313 K, x1 = 0.0319 | – | 1531.7
313 K, x1 = 0.0341 | – | 1531.8
313 K, x1 = 0.0384 | – | 1531.6
313 K, x1 = 0.0407 | – | 1531.8
313 K, x1 = 0.0428 | – | 1531.8
